Data as given in patent publication US12157730B2, “Heteroaryl derivative, method for producing same, and pharmaceutical composition comprising same as effective component” (VORONOI INC., priority 2019, dated 2024).

molecular target: T1, Ba/F3 cell EGFR Exon20 ins NPH (Homo sapiens, UniProt P00533, INS773NPH); test: Ba/F3 cell proliferation suppression, EGFR Exon20 ins NPH; assay type: cell-based; conditions: GI50 class; Ba/F3 cell line with NPH inserted at Exon20 of EGFR; 72 hours
T1 construct: expressed in transfected cells; host or cells: Ba/F3
In short: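 Cells were seeded 24 h before dosing and then treated for 72 hours with compound at final concentrations of 0.3 nM to 50 um. Live cells were measured by CellTiter-Glo luminescence, and GI50 values were derived from growth ratio relative to control across three repeats.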

SMILES	Ba/F3 (NPH) Activity
C=CC(=O)Nc1cc(Nc2cc(N3OCC[C@@H]3c3ccc(F)cc3F)ncn2)c(OC)cc1N1CCN(C2CCN(C)CC2)CC1 [compound 345, N-(5-((6-((R)-3-(2,4-difluorophenyl)isoxazolidine-2-yl)pyrimidine-4-yl)amino)-4-methoxy-2-(4-(1-methylpiperidine-4-yl)piperazine-1-yl)phenyl)acrylamide]	A (GI50 < 50 nM)
C=CCN1CCN(C2CCN(c3cc(OC)c(Nc4cc(N5OCC[C@@H]5Cc5cccc(Cl)c5Cl)ncn4)cc3NC(=O)C=C)CC2)CC1 [compound 1024, N-(2-(4-(4-allylpiperazine-1-yl)piperidine-1-yl)-5-((6-((S)-3-(2,3-dichlorobenzyl)isoxazolidine-2-yl)pyrimidine-4-yl)amino)-4-methoxyphenyl) acrylamide]	A (GI50 < 50 nM)
C=CC(=O)Nc1cc(Nc2cc(N3OCC[C@@H]3c3ccc(F)cc3F)ncn2)c(OC)cc1N1CCC(N2CCN(CCN(C)C)CC2)CC1 [compound 431, N-(5-((6-((R)-3-(2,4-difluorophenyl)isoxazolidine-2-yl)pyrimidine-4-yl)amino)-2-(4-(4-(2-(dimethylamino)ethyl)piperazine-1-yl)piperidine-1-yl)-4-methoxyphenyl) acrylamide]	A (GI50 < 50 nM)
C=CC(=O)Nc1cc(Nc2cc(N3OCC[C@@H]3c3cccc(Cl)c3Cl)ncn2)c(OC)cc1N1CCC(N2CCN(C(C)=O)CC2)CC1 [compound 608, N-(2-(4-(4-acetylpiperazine-1-yl)piperidine-1-yl)-5-((6-((R)-3-(2,3-dichlorophenyl)isoxazolidine-2-yl)pyrimidine-4-yl)amino)-4-methoxyphenyl) acrylamide]	A (GI50 < 50 nM)
C=CC(=O)Nc1cc(Nc2cc(N3OCC[C@@H]3c3cccc(F)c3F)ncn2)c(OC)cc1N1CCC(N2CCN(C(C)=O)CC2)CC1 [compound 339, N-(2-(4-(4-acetylpiperazine-1-yl)piperidine-1-yl)-5-((6-((R)-3-(2,3-difluorophenyl)isoxazolidine-2-yl)pyrimidine-4-yl)amino)-4-methoxyphenyl) acrylamide]	A (GI50 < 50 nM)
C=CC(=O)Nc1cc(Nc2cc(N3OCC[C@@H]3Cc3ccccc3)ncn2)c(OC)cc1N1CCN(CC)CC1 [compound 946, N-(5-((6-((S)-3-benzylisoxazolidine-2-yl)pyrimidine-4-yl)amino)-2-(4-ethylpiperazine-1-yl)-4-methoxyphenyl) acrylamide]	A (GI50 < 50 nM)
C=CC(=O)Nc1cc(Nc2cc(N3OCC[C@@H]3Cc3ccccc3)ncn2)c(OC)cc1N1CCC(N2CCOCC2)CC1 [compound 965, N-(5-((6-((S)-3-benzylisoxazolidine-2-yl)pyrimidine-4-yl)amino)-4-methoxy-2-(4-morpholinopiperidine-1-yl)phenyl)acrylamide]	A (GI50 < 50 nM)
C=CC(=O)Nc1cc(Nc2cc(N3OCC[C@@H]3c3cccc(C(F)(F)F)c3)ncn2)c(OC)cc1N1CCN(C2CC2)CC1 [compound 940, N-(2-(4-cyclopropylpiperazine-1-yl)-4-methoxy-5-((6-((R)-3-(3-(trifluoromethyl)pheyyl)isoxazolidine-2-yl)pyrimidine-4-yl)amino)phenyl) acrylamide]	B (50 nM ≤ GI50 < 500 nM)
C=CC(=O)Nc1cc(Nc2cc(N3OCC[C@@H]3c3cc(F)ccc3F)ncn2)c(OC)cc1N1CCC(N2C[C@H](C)N(C3CC3)C[C@H]2C)CC1 [Example 173, N-(2-(4-((2R,5S)-4-cyclopropyl-2,5-dimethylpiperazine-1-yl)piperidine-1-yl)-5-((6-((R)-3-(2,5-difluorophenyl)isoxazolidine-2-yl)pyrimidine-4-yl)amino)-4-methoxyphenyl) acrylamide]	A (GI50 < 50 nM)
C=CC(=O)Nc1cc(Nc2cc(N3OCC[C@@H]3c3ccc(F)cc3)ncn2)c(OC)cc1N1CCC(N2CCN(C3CC3)CC2)CC1 [Example 66, N-(2-(4-(4-cyclopropylpiperazine-1-yl)piperidine-1-yl)-5-((6-((R)-3-(4-fluorophenyl)isoxazolidine-2-yl)pyrimidine-4-yl)amino)-4-methoxyphenyl) acrylamide]	A (GI50 < 50 nM)
C=CC(=O)Nc1cc(Nc2cc(N3OCC[C@H]3c3c(F)ccc(F)c3Cl)ncn2)c(OC)cc1N1CCC(N2CCN(C3CC3)CC2)CC1 [compound 936, N-(5-((6-((S)-3-(2-chloro-3,6-difluorophenyl)isoxazolidine-2-yl)pyrimidine-4-yl)amino)-2-(4-(4-cyclopropylpiperazine-1-yl)piperidine-1-yl)-4-methoxyphenyl) acrylamide]	B (50 nM ≤ GI50 < 500 nM)
C=CC(=O)Nc1cc(Nc2cc(N3OCC[C@@H]3c3ccc(F)cc3F)ncn2)c(OC)cc1N1CCN(C2CC2)[C@@H](C)C1 [compound 479, N-(2-((S)-4-cyclopropyl-3-methylpiperazine-1-yl)-5-((6-((R)-3-(2,4-difluorophenyl)isoxazolidine-2-yl)pyrimidine-4-yl)amino)-4-methoxyphenyl) acrylamide]	A (GI50 < 50 nM)
C=CC(=O)Nc1cc(Nc2cc(N3OCC[C@@H]3c3cccc(OC)c3)ncn2)c(OC)cc1N1CC[C@H](N2CCOCC2)C1 [compound 778, N-(4-methoxy-5-((6-((R)-3-(3-methoxyphenyl)isoxazolidine-2-yl)pyrimidine-4-yl)amino)-2-((S)-3-morpholinopyrolidine-1-yl)phenyl)acrylamide]	B (50 nM ≤ GI50 < 500 nM)
C=CC(=O)Nc1cc(Nc2cc(N3OCC[C@@H]3c3cccc(Cl)c3Cl)ncn2)c(OC)cc1N1CCOCC1 [compound 517, N-(5-((6-((R)-3-(2,3-dichlorophenyl)isoxazolidine-2-yl)pyrimidine-4-yl)amino)-4-methoxy-2-morpholinophenyl) acrylamide]	A (GI50 < 50 nM)
C=CC(=O)Nc1cc(Nc2cc(N3OCC[C@@H]3c3ccc(C)nc3)ncn2)c(OC)cc1N1CCN(CCN(C)C)CC1 [Example 219, N-(2-(4-(2-(dimethylamino)ethyl)piperazine-1-yl)-4-methoxy-5-((6-((R)-3-(6-methylpyridine-3-yl)isoxazolidine-2-yl)pyrimidine-4-yl)amino)phenyl)acrylamide]	B (50 nM ≤ GI50 < 500 nM)
C=CC(=O)Nc1cc(Nc2cc(N3OCC[C@@H]3c3cccc(F)c3)ncn2)c(OC)cc1N1CCN(C2COC2)CC1 [compound 792, N-(5-((6-((R)-3-(3-fluorophenyl)isoxazolidine-2-yl)pyrimidine-4-yl)amino)-4-methoxy-2-(4-(oxetane-3-yl)piperazine-1-yl)phenyl) acrylamide]	A (GI50 < 50 nM)
C=CC(=O)Nc1cc(Nc2cc(N3OCC[C@@H]3c3cccc(Cl)c3F)ncn2)c(OC)cc1N1CCC(N2CCC3(CC2)CC3)CC1 [compound 355, N-(2-(4-(6-azaspiro[2.5]octan-6-yl)piperidine-1-yl)-5-((6-((R)-3-(3-chloro-2-fluorophenyl)isoxazolidine-2-yl)pyrimidine-4-yl)amino)-4-methoxyphenyl) acrylamide]	A (GI50 < 50 nM)
C=CC(=O)Nc1cc(Nc2cc(N3OCC[C@@H]3Cc3ccccc3)ncn2)c(OC)cc1N1CCN(C2CCOCC2)CC1 [compound 971, N-(5-((6-((S)-3-benzylisoxazolidine-2-yl)pyrimidine-4-yl)amino)-4-methoxy-2-(4-(tetrahydro-2H-pyran-4-yl)piperazine-1-yl)phenyl) acrylamide]	A (GI50 < 50 nM)
C=CC(=O)Nc1cc(Nc2cc(N3OCC[C@@H]3c3ccc(Cl)c(F)c3)ncn2)c(OC)cc1N1CCC(N2CCN(C3CCC3)CC2)CC1 [Example 71, N-(5-((6-((R)-3-(4-chloro-3-fluorophenyl)isoxazolidine-2-yl)pyrimidine-4-yl)amino)-2-(4-(4-cyclobutylpiperazine-1-yl)piperidine-1-yl)-4-methoxyphenyl) acrylamide]	A (GI50 < 50 nM)
C=CC(=O)Nc1cc(Nc2cc(N3OCC[C@@H]3c3cccc(Cl)c3Cl)ncn2)c(OC)cc1N1CCC(N2CCN(C3CCN(C)CC3)CC2)CC1 [compound 611]	B (50 nM ≤ GI50 < 500 nM)
C=CCN1CCN(C2CCN(c3cc(OC)c(Nc4cc(N5OCC[C@@H]5c5cc(F)cc(Cl)c5)ncn4)cc3NC(=O)C=C)CC2)CC1 [Example 214, N-(2-(4-(4-allylpiperazine-1-yl)piperidine-1-yl)-5-((6-((R)-3-(3-chloro-5-fluorophenyl)isoxazolidine-2-yl)pyrimidine-4-yl)amino)-4-methoxyphenyl) acrylamide]	A (GI50 < 50 nM)
C=CC(=O)Nc1cc(Nc2cc(N3OCC[C@@H]3c3ccc(Cl)c(Cl)c3)ncn2)c(OC)cc1N1CCC(N(C)C)CC1 [compound 677, N-(5-((6-((R)-3-(3,4-dichlorophenyl)isoxazolidine-2-yl)pyrimidine-4-yl)amino)-2-(4-(dimethylamino)piperidine-1-yl)-4-methoxyphenyl) acrylamide]	A (GI50 < 50 nM)
C=CC(=O)Nc1cc(Nc2cc(N3OCC[C@@H]3c3ccc(Cl)c(Cl)c3)ncn2)c(OC)cc1N1CCN(C2CC2)CC1 [compound 673, N-(2-(4-cyclopropylpiperazine-1-yl)-5-((6-((R)-3-(3,4-dichlorophenyl)isoxazolidine-2-yl)pyrimidine-4-yl)amino)-4-methoxyphenyl) acrylamide]	A (GI50 < 50 nM)
